# Where two headings read alike, the source gives them in different places.
# Legend:
# [1] = target: T1, RyR2 (Mus musculus, UniProt E9Q401); details: 25 μM drug, normalized to vehicle (DMSO), mean ± standard deviation, ref Johnston et al. ACS Med. Chem. Lett., 2022, 13(11), 1755–1762, cited from earlier work; for Normalized Calcium Leak: CSV supplement, ent-verticilide and Series 1; for Calcium spark Amplitude (normalized to vehicle) / Calcium spark Leak (normalized to vehicle) / Calcium spark Mass (normalized to vehicle) / Calcium spark Frequency (normalized to vehicle): Supplement Table 1; for Calcium spark Amplitude (normalized to vehicle) / Calcium spark Leak (normalized to vehicle) / Calcium spark Mass (normalized to vehicle): permeabilized murine cardiomyocytes; for Calcium spark Frequency (normalized to vehicle): permeabilized murine left ventricular myocytes, 15 min incubation
# T1 construct: ventricular cardiomyocytes were isolated from C57Bl/6J mice, adhered to laminin-coated glass bottom culture dishes, permeabilized with saponin; endogenous in cells; host or cells: left ventricular cardiomyocytes freshly isolated from C57BL/6J mice, saponin-permeabilized
# T1 sequence (E9Q401 whole entry): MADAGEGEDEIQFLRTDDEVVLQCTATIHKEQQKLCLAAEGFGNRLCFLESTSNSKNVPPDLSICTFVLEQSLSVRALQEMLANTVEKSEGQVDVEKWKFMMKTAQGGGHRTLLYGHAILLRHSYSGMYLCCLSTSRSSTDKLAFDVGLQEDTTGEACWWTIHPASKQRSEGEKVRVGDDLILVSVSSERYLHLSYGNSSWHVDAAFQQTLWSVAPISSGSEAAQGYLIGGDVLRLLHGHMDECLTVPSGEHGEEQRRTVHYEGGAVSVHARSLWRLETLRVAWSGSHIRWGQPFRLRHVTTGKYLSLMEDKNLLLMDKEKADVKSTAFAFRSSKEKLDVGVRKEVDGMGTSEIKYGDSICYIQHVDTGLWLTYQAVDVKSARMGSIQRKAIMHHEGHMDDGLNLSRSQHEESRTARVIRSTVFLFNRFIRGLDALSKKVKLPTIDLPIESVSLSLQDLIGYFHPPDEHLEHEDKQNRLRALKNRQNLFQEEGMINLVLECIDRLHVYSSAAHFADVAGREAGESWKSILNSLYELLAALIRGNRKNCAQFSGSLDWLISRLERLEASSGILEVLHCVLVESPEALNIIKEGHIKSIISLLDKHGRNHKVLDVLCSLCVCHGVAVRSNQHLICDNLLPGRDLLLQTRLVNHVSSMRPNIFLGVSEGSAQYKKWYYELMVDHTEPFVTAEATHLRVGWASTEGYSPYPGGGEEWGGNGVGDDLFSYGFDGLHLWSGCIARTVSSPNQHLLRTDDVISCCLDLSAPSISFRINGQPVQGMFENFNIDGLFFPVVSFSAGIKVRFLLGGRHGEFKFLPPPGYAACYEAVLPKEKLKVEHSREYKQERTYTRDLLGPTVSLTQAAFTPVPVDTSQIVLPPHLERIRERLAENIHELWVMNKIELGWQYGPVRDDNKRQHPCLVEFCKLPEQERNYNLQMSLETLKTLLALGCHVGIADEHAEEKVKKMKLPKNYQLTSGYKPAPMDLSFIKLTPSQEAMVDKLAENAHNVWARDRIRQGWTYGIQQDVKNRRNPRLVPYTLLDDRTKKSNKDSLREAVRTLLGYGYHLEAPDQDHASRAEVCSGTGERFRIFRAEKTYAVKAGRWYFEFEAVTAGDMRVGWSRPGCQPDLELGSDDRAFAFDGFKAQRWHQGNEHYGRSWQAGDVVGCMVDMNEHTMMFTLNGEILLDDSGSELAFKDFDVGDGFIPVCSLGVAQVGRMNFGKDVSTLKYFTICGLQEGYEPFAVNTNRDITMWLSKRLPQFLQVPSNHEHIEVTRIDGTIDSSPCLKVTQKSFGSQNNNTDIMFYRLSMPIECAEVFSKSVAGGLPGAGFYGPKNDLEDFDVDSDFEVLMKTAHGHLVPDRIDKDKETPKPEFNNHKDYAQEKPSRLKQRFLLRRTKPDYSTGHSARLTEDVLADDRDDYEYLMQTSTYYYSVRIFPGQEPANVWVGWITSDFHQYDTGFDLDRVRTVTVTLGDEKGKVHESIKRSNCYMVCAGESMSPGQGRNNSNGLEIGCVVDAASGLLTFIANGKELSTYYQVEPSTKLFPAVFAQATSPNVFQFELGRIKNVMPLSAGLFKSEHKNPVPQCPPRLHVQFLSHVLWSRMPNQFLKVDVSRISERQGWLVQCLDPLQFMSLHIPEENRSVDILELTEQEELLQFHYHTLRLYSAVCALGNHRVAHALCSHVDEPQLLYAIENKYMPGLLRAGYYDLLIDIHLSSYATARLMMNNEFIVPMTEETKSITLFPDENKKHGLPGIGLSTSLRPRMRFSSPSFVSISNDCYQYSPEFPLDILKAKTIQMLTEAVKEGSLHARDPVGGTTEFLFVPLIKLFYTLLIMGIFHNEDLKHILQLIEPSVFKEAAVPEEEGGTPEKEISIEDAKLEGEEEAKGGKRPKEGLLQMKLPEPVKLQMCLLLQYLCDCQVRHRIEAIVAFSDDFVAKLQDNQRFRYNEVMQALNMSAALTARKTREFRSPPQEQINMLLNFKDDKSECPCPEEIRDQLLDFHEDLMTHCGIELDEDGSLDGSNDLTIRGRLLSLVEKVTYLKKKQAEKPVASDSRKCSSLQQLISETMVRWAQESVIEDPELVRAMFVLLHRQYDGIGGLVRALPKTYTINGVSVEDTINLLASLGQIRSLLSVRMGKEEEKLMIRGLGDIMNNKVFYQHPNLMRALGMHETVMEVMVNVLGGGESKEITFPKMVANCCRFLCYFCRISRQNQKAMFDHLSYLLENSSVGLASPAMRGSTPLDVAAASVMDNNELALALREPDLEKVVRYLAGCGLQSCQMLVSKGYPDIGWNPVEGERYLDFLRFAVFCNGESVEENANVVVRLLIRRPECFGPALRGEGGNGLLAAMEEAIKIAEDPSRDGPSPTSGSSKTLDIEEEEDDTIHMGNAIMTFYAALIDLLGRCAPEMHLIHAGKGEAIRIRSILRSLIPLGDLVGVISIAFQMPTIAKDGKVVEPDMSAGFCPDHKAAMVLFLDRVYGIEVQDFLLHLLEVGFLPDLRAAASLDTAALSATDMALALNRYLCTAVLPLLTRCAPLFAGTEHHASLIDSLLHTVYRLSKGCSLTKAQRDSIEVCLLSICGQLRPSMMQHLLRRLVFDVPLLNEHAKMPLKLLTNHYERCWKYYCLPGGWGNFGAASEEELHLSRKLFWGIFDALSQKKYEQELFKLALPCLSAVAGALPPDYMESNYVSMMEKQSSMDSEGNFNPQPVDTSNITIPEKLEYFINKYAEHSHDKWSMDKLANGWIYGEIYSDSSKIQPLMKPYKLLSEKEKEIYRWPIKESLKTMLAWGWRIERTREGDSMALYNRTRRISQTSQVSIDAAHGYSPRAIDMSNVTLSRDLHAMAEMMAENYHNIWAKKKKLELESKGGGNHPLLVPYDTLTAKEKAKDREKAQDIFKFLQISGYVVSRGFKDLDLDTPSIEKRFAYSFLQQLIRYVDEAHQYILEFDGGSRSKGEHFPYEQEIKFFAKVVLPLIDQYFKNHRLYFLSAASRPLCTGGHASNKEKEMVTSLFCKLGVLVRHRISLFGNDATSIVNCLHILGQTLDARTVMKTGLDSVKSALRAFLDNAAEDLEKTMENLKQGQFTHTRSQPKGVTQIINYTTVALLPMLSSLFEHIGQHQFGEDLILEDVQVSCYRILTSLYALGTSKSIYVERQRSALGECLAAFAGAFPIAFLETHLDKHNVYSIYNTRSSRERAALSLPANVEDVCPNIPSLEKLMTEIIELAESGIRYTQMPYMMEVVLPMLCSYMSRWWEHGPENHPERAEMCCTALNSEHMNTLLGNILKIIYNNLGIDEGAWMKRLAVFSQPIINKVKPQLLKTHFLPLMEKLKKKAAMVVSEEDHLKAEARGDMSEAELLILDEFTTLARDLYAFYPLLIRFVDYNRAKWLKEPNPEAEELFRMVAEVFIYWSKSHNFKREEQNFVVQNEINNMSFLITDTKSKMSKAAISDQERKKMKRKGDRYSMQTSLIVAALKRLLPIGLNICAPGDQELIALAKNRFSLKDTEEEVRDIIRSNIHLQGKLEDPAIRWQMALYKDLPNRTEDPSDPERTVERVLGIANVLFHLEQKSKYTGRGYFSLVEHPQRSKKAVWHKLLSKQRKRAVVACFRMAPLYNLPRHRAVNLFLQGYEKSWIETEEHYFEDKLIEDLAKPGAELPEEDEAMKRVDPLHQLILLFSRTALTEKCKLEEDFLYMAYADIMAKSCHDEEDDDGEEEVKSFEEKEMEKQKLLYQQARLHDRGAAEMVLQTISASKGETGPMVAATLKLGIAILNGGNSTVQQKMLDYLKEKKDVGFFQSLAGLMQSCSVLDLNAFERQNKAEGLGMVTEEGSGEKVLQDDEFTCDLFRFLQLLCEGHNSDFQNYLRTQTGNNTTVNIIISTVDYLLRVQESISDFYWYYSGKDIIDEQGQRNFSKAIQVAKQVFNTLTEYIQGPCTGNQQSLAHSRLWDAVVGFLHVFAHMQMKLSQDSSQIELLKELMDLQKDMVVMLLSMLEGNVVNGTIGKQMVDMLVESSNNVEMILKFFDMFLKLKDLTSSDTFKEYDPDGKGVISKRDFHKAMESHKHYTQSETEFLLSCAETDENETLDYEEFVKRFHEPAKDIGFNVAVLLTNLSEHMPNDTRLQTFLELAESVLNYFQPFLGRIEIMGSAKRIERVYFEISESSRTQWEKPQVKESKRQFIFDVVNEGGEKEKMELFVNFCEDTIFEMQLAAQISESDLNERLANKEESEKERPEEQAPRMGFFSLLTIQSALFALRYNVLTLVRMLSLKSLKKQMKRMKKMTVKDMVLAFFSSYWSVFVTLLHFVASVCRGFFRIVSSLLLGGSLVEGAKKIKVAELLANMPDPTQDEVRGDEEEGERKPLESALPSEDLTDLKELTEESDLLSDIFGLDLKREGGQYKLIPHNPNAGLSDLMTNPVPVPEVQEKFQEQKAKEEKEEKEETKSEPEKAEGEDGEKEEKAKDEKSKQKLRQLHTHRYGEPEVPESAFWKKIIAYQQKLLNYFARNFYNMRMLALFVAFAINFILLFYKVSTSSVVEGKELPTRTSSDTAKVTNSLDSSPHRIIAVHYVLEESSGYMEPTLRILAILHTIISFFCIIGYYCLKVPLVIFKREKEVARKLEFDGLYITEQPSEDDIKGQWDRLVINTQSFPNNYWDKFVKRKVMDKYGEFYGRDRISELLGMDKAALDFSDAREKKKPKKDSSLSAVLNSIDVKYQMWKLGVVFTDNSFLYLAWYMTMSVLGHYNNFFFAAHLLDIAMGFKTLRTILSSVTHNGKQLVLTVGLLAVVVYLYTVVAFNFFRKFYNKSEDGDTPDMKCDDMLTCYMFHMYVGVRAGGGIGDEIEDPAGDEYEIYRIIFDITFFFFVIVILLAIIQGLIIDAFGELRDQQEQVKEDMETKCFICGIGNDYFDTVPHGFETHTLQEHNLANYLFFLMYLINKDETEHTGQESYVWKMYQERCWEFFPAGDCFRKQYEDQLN
# Method: Supplement jm4c00923_si_002.csv, table | column: Normalized Calcium Leak || page 10: Johnston et al. Supporting Information mouse variability provided by Sikkel et al.5 Bonferroni-adjusted P values are reported in the figure legends. A cutoff value of 0.05 was used as the threshold to reject the null hypothesis. Safety: No unexpected or unusually high safety hazards were encountered. Biological Experiment Data: Calcium spark parameters For all series, assay is run with 25 μM solution of drug. Values are normalized to the vehicle (DMSO) condition and reported as mean ± standard deviation. Statistical comparisons were made using a hierarchical clustering model with Bonf ...
# [2] = amide bond, 24-membered ring, 3 steps
# [3] = the molecule shown is the open-chain precursor
substance,measurement,setting,value
"(3R,6S,9R,12S,15R,18S,21R,24S)-3,4,9,10,15,16,21-heptamethyl-6,12,18,24-tetrapentyl-1,7,13,19-tetraoxa-4,10,16,22-tetraazacyclotetracosan-2,5,8,11,14,17,20,23-octaone [1.1]",Normalized Calcium Leak,[1],1.02 ± 0.71
same,Calcium spark Amplitude (normalized to vehicle),[1],1.01 ± 0.25
same,Calcium spark Leak (normalized to vehicle),[1],1.02 ± 0.71
same,Calcium spark Mass (normalized to vehicle),[1],0.98 ± 0.59
same,Calcium spark Frequency (normalized to vehicle),[1],1.03 ± 0.27
"(3R,6S,9R,12S,15R,18S,21R,24S)-3,4,9,10,13,15,16,19,21,22-decamethyl-6,12,18,24-tetrapentyl-1,7-dioxa-4,10,13,16,19,22-hexaazacyclotetracosan-2,5,8,11,14,17,20,23-octaone","ring closure, yield after HPLC","[2]; PyBOP/DIPEA, DMF, 2.9 mM",4%
"(3R,6S,9R,12S,15R,18S,21R,24S)-3,4,9,15,21-pentamethyl-6,12,18,24-tetrapentyl-1,7,13,19-tetraoxa-4,10,16,22-tetraazacyclotetracosan-2,5,8,11,14,17,20,23-octaone [1.4]",Normalized Calcium Leak,[1],0.77 ± 0.53
same,Calcium spark Amplitude (normalized to vehicle),[1],0.93 ± 0.24
same,Calcium spark Leak (normalized to vehicle),[1],0.77 ± 0.53
same,Calcium spark Mass (normalized to vehicle),[1],0.84 ± 0.32
same,Calcium spark Frequency (normalized to vehicle),[1],0.90 ± 0.36
"(3R,6S,9R,12S,15R,18S,21R,24S)-3,4,9,10,15,16,19,21,22-nonamethyl-6,12,18,24-tetrapentyl-1,7,13-trioxa-4,10,16,19,22-pentaazacyclotetracosan-2,5,8,11,14,17,20,23-octaone","ring closure, yield after HPLC","[2]; PyBOP/DIPEA, DMF, 3.6 mM",5.1%
H-dAla-Hhp-dAla-MeAhp-dAla-Hhp-dAla-MeAhp-OH?,"ring closure, yield after HPLC",[2]; [3],6%
"(3R,6S,9R,12S,15R,18S,21R,24S)-1,3,4,7,9,10,13,15,16,19,21-undecamethyl-6,12,18,24-tetrapentyl-1,4,7,10,13,16,19,22-octaazacyclotetracosan-2,5,8,11,14,17,20,23-octaone","ring closure, yield after HPLC","[2]; PyBOP/DIPEA, DMF, 4.6 mM",7.5%
H-dMeAla-MeAhp-dMeAla-Hhp-dMeAla-Hhp-dMeAla-Hhp-OH,"ring closure, yield after HPLC",[2]; [3],5%
H-dMeAla-Hhp-dMeAla-Hhp-dMeAla-Ahp-dMeAla-Ahp-OH?,"ring closure, yield after HPLC",[2]; [3],7%
H-dMeAla-MeAhp-dMeAla-Ahp-dMeAla-Ahp-dMeAla-Ahp-OH,"ring closure, yield after HPLC",[2]; [3],9%
"(3R,6S,9R,12S,15R,18S,21R,24S)-1,3,4,7,9,10,13,15,16,19,21,22-dodecamethyl-6,12,18,24-tetrapentyl-1,4,7,10,13,16,19,22-octaazacyclotetracosan-2,5,8,11,14,17,20,23-octaone","ring closure, yield after HPLC","[2]; PyBOP/DIPEA, DMF",8%
H-dMeAla-MeAhp-dMeAla-MeAhp-dMeAla-Ahp-dMeAla-Ahp-OH?,"ring closure, yield after HPLC",[2]; [3],6%
H-dMeAla-Ahp-dMeAla-Hhp-dMeAla-Ahp-dMeAla-Hhp-OH,"ring closure, yield after HPLC",[2]; [3],10%
"(3R,6S,9R,12S,15R,18S,21R,24S)-3,4,7,9,10,13,15,16,19,21,22-undecamethyl-6,12,18,24-tetrapentyl-1-oxa-4,7,10,13,16,19,22-heptaazacyclotetracosan-2,5,8,11,14,17,20,23-octaone","ring closure, yield after HPLC","[2]; PyBOP/DIPEA, DMF, 5.0 mM",16%
"(3R,6S,9R,12S,15R,18S,21R,24S)-3,4,9,15,16,21-hexamethyl-6,12,18,24-tetrapentyl-1,7,13,19-tetraoxa-4,10,16,22-tetraazacyclotetracosan-2,5,8,11,14,17,20,23-octaone [1.3]",Normalized Calcium Leak,[1],0.90 ± 0.60
same,Calcium spark Amplitude (normalized to vehicle),[1],1.04 ± 0.28
same,Calcium spark Leak (normalized to vehicle),[1],0.90 ± 0.60
same,Calcium spark Mass (normalized to vehicle),[1],0.91 ± 0.48
same,Calcium spark Frequency (normalized to vehicle),[1],0.96 ± 0.29
H-dMeAla-Hhp-dMeAla-Ahp-dMeAla-Ahp-dMeAla-Ahp-OH?,"ring closure, yield after HPLC",[2]; [3],7%
H-dMeAla-MeAhp-dMeAla-MeAhp-dMeAla-MeAhp-dMeAla-Ahp-OH?,"ring closure, yield after HPLC",[2]; [3],5%
H-dMeAla-MeAhp-dMeAla-MeAhp-dMeAla-MeAhp-dMeAla-MeAhp-OH?,"ring closure, yield after HPLC",[2]; [3],8%
"(3S,6R,9S,12R,15S,18R,21S,24R)-1,6,7,12,13,18,19,24-Octamethyl-3,9,15,21-tetrapentyl-1,4,7,10,13,16,19,22-octaazacyclotetracosan-2,5,8,11,14,17,20,23-octaone","ring closure, yield after HPLC","[2]; PyBOP/DIEA, DMF, 4.6 mM, 0.0 °C",11%

# — paper PMC11284792, “Backbone-Determined Antiarrhythmic Structure–Activity Relationships for a Mirror Image, Oligomeric Depsipeptide Natural Product” (Journal of Medicinal Chemistry, 2024)
